# Assays:
# Type in all cases: biochemical
# IGFR-1 = molecular target: T1, IGFR-1 (Homo sapiens, UniProt P08069); assay: Kinase inhibition assay (33P transfer), IGFR-1; settings: Table 2, class symbols A-E
# T1 construct: Kinases are expressed as either kinase domains or full length constructs; made in house
# AKT = molecular target: T2, AKT (Homo sapiens, UniProt Q9Y243); assay: Kinase inhibition assay (33P transfer), AKT; settings: Table 2, class symbols A-E; read-out: AKT3-1
# T2 construct: Kinases are expressed as either kinase domains or full length constructs; made in house
# T2 sequence (Q9Y243 whole entry, the tested form may be a part): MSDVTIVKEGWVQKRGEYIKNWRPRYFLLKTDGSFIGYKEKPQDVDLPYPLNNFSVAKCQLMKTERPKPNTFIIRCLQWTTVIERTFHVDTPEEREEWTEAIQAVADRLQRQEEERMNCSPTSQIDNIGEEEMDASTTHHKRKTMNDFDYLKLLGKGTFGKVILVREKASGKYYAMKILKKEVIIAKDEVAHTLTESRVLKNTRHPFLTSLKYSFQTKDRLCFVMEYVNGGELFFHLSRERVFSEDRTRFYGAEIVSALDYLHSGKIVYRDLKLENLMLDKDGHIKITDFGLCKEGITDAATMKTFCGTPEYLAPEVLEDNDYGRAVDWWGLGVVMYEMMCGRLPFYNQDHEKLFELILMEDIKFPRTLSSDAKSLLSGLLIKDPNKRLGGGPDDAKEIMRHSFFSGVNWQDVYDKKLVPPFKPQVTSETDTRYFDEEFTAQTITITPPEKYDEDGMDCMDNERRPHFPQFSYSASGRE
# How it was run: (§1)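 Kinase domain or full-length constructs, GST- or polyHis-tagged, expressed in E. coli or baculovirus-High Five cells, sometimes with regulatory polypeptides. Activity measured as 33PO4 transfer from ATP to plate-bound poly(Glu,Tyr) 4:1 or poly(Arg,Ser) 3:1; after incubation, plates washed with 0.5% phosphoric acid and counted by liquid scintillation.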
# Itk = molecular target: T3, Itk (Homo sapiens, UniProt Q08881); assay: Kinase inhibition assay (33P transfer), Itk; settings: Table 3, class symbols; read-out: Itk-1
# T3 construct: Kinases are expressed as either kinase domains or full length constructs; made in house
# T3 sequence (Q08881 1-620): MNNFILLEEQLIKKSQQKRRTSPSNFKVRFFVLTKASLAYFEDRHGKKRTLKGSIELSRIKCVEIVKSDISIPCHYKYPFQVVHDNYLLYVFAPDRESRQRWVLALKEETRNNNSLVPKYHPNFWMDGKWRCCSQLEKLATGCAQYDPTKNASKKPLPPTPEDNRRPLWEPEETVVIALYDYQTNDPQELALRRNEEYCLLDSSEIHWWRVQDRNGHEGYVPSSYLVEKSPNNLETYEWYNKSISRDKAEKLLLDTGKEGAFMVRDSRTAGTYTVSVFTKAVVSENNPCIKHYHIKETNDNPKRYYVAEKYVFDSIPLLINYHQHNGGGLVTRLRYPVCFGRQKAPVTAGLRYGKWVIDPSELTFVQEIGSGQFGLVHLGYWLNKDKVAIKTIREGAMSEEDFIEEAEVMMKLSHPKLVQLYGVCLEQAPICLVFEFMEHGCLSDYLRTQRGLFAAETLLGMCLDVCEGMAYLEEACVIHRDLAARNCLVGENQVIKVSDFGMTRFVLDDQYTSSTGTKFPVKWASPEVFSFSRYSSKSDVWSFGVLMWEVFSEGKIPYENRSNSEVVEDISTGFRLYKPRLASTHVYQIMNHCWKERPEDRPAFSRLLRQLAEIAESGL
# How it was run: (§2)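 Activity read as 33P incorporation from ATP into poly(Glu,Tyr) 4:1 or poly(Arg,Ser) 3:1 substrate bound to microtiter plates, measured by scintillation after acid washing. Enzymes were affinity-purified GST or polyHis fusions (kinase domain or full length) from E. coli or baculovirus; IC50 = 50% reduction in labelled phosphate.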
# Zap-70 = molecular target: T4, Zap-70 (Homo sapiens, UniProt P43403); assay: Kinase inhibition assay (33P transfer), Zap-70; settings: Table 3, class symbols; read-out: Zap-1
# T4 construct: Kinases are expressed as either kinase domains or full length constructs; made in house
# T4 sequence (P43403 1-619): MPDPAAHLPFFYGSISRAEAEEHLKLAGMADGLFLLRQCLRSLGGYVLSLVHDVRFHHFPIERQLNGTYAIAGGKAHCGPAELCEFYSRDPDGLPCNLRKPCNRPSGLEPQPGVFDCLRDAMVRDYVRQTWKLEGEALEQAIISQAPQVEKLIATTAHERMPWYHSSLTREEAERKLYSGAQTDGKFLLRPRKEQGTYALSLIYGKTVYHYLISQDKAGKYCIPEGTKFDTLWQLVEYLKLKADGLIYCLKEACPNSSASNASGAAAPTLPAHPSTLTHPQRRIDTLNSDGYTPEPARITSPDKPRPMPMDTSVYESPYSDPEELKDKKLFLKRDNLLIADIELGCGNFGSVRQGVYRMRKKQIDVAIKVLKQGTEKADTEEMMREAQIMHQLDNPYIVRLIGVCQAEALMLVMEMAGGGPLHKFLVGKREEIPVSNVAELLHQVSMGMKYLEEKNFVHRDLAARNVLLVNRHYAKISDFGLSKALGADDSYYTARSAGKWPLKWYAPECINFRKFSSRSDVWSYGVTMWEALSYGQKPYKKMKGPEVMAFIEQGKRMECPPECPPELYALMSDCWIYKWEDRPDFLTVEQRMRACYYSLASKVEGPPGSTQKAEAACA
# How it was run: as §1
# EGFR = molecular target: T5, EGFR (Homo sapiens, UniProt P00533); assay: Kinase inhibition assay (33P transfer), EGFR; settings: Table 2, class symbols A-E; read-out: EGFR-1
# T5 construct: Kinases are expressed as either kinase domains or full length constructs; made in house
# T5 sequence (P00533 25-1210, species assumed): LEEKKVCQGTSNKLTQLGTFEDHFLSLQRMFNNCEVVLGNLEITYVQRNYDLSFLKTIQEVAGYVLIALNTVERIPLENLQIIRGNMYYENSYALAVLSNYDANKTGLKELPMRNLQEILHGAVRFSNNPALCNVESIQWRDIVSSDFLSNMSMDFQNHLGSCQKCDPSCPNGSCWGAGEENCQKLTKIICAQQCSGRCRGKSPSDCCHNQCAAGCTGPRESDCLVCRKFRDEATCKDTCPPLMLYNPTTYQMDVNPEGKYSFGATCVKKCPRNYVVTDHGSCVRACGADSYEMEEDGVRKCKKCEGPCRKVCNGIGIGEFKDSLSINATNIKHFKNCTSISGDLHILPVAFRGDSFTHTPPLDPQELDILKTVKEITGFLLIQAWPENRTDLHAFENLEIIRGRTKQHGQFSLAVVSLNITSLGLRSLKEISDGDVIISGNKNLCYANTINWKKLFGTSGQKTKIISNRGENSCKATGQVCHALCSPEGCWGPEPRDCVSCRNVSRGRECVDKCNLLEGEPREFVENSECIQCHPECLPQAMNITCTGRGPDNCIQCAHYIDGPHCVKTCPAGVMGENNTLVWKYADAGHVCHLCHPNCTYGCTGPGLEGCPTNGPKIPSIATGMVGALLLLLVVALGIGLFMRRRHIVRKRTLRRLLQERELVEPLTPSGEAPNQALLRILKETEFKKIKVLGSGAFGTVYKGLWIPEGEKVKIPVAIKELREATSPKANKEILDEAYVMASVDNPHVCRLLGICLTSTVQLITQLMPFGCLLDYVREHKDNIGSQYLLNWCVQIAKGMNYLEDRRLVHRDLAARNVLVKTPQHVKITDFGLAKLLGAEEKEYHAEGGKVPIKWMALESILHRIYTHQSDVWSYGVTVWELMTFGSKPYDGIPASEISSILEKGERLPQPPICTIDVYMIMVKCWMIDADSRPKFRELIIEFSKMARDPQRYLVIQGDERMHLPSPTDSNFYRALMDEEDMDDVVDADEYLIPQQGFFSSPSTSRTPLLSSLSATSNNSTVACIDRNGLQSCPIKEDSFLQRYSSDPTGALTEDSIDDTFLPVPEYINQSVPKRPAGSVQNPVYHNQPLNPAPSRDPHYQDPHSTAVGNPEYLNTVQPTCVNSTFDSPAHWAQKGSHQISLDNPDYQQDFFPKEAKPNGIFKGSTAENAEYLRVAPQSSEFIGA
# How it was run: as §2
# Lck = molecular target: T6, Lck (Homo sapiens, UniProt P06239); assay: Kinase inhibition assay (33P transfer), Lck; settings: Table 3, class symbols; read-out: Lck-1
# T6 construct: Kinases are expressed as either kinase domains or full length constructs; made in house
# T6 sequence (P06239 whole entry, species assumed, the tested form may be a part): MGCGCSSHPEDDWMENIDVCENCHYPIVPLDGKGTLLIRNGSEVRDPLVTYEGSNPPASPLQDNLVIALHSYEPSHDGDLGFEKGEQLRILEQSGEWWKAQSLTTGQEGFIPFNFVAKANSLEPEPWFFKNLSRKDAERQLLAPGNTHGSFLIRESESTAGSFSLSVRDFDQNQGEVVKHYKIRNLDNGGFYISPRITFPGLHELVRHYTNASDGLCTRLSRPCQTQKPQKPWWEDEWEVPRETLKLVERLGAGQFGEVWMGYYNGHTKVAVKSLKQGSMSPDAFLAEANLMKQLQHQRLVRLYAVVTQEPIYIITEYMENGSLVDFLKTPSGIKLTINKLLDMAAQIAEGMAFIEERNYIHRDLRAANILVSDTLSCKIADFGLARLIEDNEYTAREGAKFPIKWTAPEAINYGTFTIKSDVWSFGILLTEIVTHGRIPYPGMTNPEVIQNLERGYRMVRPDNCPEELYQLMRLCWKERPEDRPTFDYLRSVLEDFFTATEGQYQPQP
# How it was run: as §1
# ErbB2 = molecular target: T7, ErbB2 (Homo sapiens, UniProt P04626); assay: Kinase inhibition assay (33P transfer), ErbB2; settings: read-out: ErbB2-2
# T7 construct: Kinases are expressed as either kinase domains or full length constructs; made in house
# How it was run: as §2
# c-Met = molecular target: T8, c-Met (Homo sapiens, UniProt P08581); assay: Kinase inhibition assay (33P transfer), c-Met; settings: Table 2, class symbols A-E; read-out: Met-1
# T8 construct: Kinases are expressed as either kinase domains or full length constructs; made in house
# T8 sequence (P08581 25-1390): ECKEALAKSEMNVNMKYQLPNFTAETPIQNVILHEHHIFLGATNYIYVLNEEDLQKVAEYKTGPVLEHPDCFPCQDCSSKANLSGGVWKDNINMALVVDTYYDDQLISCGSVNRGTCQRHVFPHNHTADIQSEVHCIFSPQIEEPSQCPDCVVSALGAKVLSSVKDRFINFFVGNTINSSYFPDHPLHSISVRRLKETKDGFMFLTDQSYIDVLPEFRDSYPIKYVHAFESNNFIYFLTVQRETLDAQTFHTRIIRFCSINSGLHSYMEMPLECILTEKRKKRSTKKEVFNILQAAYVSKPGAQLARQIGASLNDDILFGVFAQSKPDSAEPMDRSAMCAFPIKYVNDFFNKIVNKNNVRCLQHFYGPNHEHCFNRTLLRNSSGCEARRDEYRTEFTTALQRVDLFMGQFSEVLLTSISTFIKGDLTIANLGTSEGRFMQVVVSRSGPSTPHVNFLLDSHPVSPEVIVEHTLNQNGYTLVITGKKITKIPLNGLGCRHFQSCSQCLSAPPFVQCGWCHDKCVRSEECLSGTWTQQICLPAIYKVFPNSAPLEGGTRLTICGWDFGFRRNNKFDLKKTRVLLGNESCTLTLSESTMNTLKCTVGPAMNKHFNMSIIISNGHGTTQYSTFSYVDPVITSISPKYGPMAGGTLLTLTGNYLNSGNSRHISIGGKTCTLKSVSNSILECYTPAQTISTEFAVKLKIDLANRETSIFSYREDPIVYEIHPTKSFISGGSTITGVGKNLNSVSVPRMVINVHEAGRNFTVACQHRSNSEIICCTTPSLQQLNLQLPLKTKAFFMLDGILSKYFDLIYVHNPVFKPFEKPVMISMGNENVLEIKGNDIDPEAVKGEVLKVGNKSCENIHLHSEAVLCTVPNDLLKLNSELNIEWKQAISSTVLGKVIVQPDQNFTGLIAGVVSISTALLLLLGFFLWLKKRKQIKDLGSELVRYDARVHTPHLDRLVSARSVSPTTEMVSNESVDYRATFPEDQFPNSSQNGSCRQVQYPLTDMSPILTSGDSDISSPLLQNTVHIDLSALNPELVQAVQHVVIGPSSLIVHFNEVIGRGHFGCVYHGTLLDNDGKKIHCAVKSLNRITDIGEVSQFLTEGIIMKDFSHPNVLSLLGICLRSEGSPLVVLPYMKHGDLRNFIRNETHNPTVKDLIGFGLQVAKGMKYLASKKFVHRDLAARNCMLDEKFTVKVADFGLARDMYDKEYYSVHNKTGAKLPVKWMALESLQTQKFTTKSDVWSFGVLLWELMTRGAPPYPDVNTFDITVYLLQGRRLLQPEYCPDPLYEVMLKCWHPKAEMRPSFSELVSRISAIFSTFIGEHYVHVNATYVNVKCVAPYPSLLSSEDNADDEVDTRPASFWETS
# How it was run: as §2
# Kdr = molecular target: T9, Kdr (Homo sapiens, UniProt P35968); assay: Kinase inhibition assay (33P transfer), Kdr; settings: Table 3, class symbols; read-out: KDR-1
# T9 construct: Kinases are expressed as either kinase domains or full length constructs; made in house
# How it was run: as §1
# PDGFRB = molecular target: T10, PDGFRB (Homo sapiens, UniProt P09619); assay: Kinase inhibition assay (33P transfer), PDGFRB; settings: read-out: PDGFRB-1
# T10 construct: Kinases are expressed as either kinase domains or full length constructs; made in house
# T1 sequence (P08069 31-1367): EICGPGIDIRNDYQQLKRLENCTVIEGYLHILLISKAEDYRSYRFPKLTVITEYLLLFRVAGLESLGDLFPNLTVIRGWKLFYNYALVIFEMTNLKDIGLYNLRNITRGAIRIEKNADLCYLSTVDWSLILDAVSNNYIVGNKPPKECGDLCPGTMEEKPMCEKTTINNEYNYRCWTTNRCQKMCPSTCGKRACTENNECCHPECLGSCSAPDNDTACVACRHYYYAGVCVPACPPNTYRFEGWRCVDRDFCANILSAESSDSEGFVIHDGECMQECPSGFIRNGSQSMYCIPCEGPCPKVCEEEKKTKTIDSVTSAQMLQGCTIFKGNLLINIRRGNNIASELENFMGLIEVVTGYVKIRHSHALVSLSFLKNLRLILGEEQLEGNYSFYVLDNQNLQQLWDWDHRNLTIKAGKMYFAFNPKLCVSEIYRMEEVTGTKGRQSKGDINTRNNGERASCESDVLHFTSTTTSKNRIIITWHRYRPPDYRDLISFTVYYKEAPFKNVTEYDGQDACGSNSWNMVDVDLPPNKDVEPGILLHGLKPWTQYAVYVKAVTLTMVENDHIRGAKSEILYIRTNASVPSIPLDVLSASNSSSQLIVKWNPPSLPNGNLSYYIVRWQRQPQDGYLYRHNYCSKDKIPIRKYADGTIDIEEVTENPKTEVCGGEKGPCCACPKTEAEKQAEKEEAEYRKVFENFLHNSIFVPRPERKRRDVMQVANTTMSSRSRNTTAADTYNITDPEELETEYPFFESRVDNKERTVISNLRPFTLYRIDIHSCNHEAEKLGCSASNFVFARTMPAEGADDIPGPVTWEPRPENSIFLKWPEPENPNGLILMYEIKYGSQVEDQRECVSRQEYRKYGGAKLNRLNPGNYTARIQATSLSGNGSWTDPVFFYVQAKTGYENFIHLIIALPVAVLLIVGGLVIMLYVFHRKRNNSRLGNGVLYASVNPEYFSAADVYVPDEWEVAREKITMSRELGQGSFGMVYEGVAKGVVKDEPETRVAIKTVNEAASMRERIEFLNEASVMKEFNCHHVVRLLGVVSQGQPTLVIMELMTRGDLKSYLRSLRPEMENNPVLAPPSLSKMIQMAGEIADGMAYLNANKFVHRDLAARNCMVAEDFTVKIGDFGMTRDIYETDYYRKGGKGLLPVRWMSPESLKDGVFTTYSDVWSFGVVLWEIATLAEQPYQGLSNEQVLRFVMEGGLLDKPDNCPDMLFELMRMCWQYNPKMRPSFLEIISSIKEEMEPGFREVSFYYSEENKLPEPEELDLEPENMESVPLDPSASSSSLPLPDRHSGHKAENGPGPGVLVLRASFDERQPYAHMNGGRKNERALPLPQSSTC
Compound,IC50 (IGFR-1),IC50 (AKT),IC50 (Itk),IC50 (Zap-70),IC50 (EGFR),IC50 (Lck),IC50 (ErbB2),IC50 (c-Met),IC50 (Kdr),IC50 (PDGFRB)
COc1cc(Nc2ncnc(-c3cccnc3Nc3cc(Cl)cc(Cl)c3)n2)cc(OC)c1OC [Compound 837],> 9.01 µM,> 9.01 µM,> 9.01 µM,> 9.01 µM,> 9.01 µM,> 9.01 µM,> 9.01 µM,> 9.01 µM,> 9.01 µM,> 9.01 µM
COc1cc(Nc2ncnc(-c3cccnc3Nc3ccc(Oc4ccccc4)cc3)n2)cc(OC)c1OC [Compound 839],> 8.61 µM,> 8.61 µM,> 8.61 µM,> 8.61 µM,> 8.61 µM,> 8.61 µM,0.765 to 4.59 µM,> 8.61 µM,> 8.61 µM,4.59 to 6.7 µM
COc1cc(Nc2ncnc(-c3cccnc3Nc3cccc(Oc4ccccc4)c3)n2)cc(OC)c1OC [Compound 840],> 8.61 µM,> 8.61 µM,> 8.61 µM,> 8.61 µM,> 8.61 µM,> 8.61 µM,0.765 to 4.59 µM,> 8.61 µM,4.59 to 6.7 µM,0.765 to 4.59 µM
COc1cc(Nc2ncnc(-c3cccnc3Nc3cccc4c3CCCC4)n2)cc(OC)c1OC [Compound 841],> 9.29 µM,> 9.29 µM,> 9.29 µM,> 9.29 µM,> 9.29 µM,> 9.29 µM,> 9.29 µM,> 9.29 µM,> 9.29 µM,> 9.29 µM
COc1cc(Nc2ncnc(-c3cccnc3NCc3ccccc3OC(F)(F)F)n2)cc(OC)c1OC [Compound 842],> 8.51 µM,> 8.51 µM,> 8.51 µM,6.62 to 8.51 µM,> 8.51 µM,> 8.51 µM,6.62 to 8.51 µM,6.62 to 8.51 µM,0.757 to 4.54 µM,4.54 to 6.62 µM
COc1cc(Nc2ncnc(-c3cccnc3NC(C)c3ccccc3)n2)cc(OC)c1OC (stereo not shown) [Compound 843],> 9.81 µM,> 9.81 µM,> 9.81 µM,> 9.81 µM,> 9.81 µM,< 0.872 µM,7.63 to 9.81 µM,> 9.81 µM,< 0.872 µM,< 0.872 µM
COc1cc(Nc2ncnc(-c3cccnc3NCc3cccc4ccccc34)n2)cc(OC)c1OC [Compound 844],4.85 to 7.08 µM,> 9.1 µM,> 9.1 µM,> 9.1 µM,> 9.1 µM,> 9.1 µM,0.809 to 4.85 µM,> 9.1 µM,< 0.809 µM,0.809 to 4.85 µM
COc1cc(Nc2ncnc(-c3cccnc3NC(C)c3cccc4ccccc34)n2)cc(OC)c1OC (stereo not shown) [Compound 845],> 8.85 µM,0.787 to 4.72 µM,> 8.85 µM,> 8.85 µM,> 8.85 µM,0.787 to 4.72 µM,4.72 to 6.88 µM,> 8.85 µM,< 0.787 µM,0.787 to 4.72 µM
COc1cc(Nc2ncnc(-c3cccnc3NC3CCc4ccccc43)n2)cc(OC)c1OC (stereo not shown) [Compound 846],> 9.56 µM,> 9.56 µM,> 9.56 µM,> 9.56 µM,5.1 to 7.44 µM,0.85 to 5.1 µM,5.1 to 7.44 µM,> 9.56 µM,0.85 to 5.1 µM,0.85 to 5.1 µM
COc1cc(Nc2ncnc(-c3cccnc3NC3CCN(Cc4ccccc4)CC3)n2)cc(OC)c1OC [Compound 847],> 8.53 µM,> 8.53 µM,> 8.53 µM,> 8.53 µM,> 8.53 µM,> 8.53 µM,> 8.53 µM,> 8.53 µM,> 8.53 µM,> 8.53 µM
COc1cc(Nc2ncnc(-c3cccnc3NC3CCCCC3)n2)cc(OC)c1OC [Compound 848],> 10.3 µM,> 10.3 µM,> 10.3 µM,> 10.3 µM,> 10.3 µM,8.02 to 10.3 µM,> 10.3 µM,> 10.3 µM,< 0.916 µM,< 0.916 µM
COc1ccc(Nc2ncnc(N(C)CC(O)c3ccccc3)n2)cc1OC (stereo not shown) [Compound 868],> 11.8 µM,> 11.8 µM,1.05 to 6.29 µM,> 11.8 µM,1.05 to 6.29 µM,> 11.8 µM,> 11.8 µM,> 11.8 µM,> 11.8 µM,1.05 to 6.29 µM
COc1ccc(Nc2ncnc(N(C)CCc3ccccn3)n2)cc1OC [Compound 869],> 12.3 µM,> 12.3 µM,6.55 to 9.55 µM,> 12.3 µM,1.09 to 6.55 µM,> 12.3 µM,9.55 to 12.3 µM,9.55 to 12.3 µM,9.55 to 12.3 µM,1.09 to 6.55 µM
CCN(CC)CCN(C)c1ncnc(Nc2ccc(OC)c(OC)c2)n1 [Compound 870],> 12.5 µM,> 12.5 µM,> 12.5 µM,> 12.5 µM,> 12.5 µM,> 12.5 µM,> 12.5 µM,> 12.5 µM,> 12.5 µM,> 12.5 µM
c1ccc(Cn2ncc3cc(Nc4ncnc(NCCN5CCCC5)n4)ccc32)cc1 [Compound 871],> 10.9 µM,> 10.9 µM,5.79 to 8.44 µM,> 10.9 µM,> 10.9 µM,> 10.9 µM,> 10.9 µM,> 10.9 µM,> 10.9 µM,8.44 to 10.9 µM
Clc1cc(Nc2ncnc(Nc3ccc4c(cnn4Cc4ccccc4)c3)n2)cc(Cl)c1Cl [Compound 872],0.805 to 4.83 µM,0.805 to 4.83 µM,0.805 to 4.83 µM,> 9.06 µM,0.805 to 4.83 µM,> 9.06 µM,0.805 to 4.83 µM,0.805 to 4.83 µM,0.805 to 4.83 µM,0.805 to 4.83 µM
COc1cccc(CCNc2ncnc(Nc3ccc4c(cnn4Cc4ccccc4)c3)n2)c1OC [Compound 873],> 9.34 µM,> 9.34 µM,> 9.34 µM,> 9.34 µM,> 9.34 µM,> 9.34 µM,> 9.34 µM,> 9.34 µM,> 9.34 µM,> 9.34 µM
CN(c1cccc(Cl)c1)c1ncnc(Nc2ccc(OC(F)(F)F)cc2)n1 [Compound 874],> 11.4 µM,> 11.4 µM,> 11.4 µM,> 11.4 µM,1.01 to 6.06 µM,> 11.4 µM,> 11.4 µM,> 11.4 µM,> 11.4 µM,> 11.4 µM
CN(c1cccc(Cl)c1)c1ncnc(Nc2cccc(OC(F)(F)F)c2)n1 [Compound 875],> 11.4 µM,> 11.4 µM,8.84 to 11.4 µM,> 11.4 µM,< 1.01 µM,> 11.4 µM,1.01 to 6.06 µM,6.06 to 8.84 µM,6.06 to 8.84 µM,1.01 to 6.06 µM
